From US12048686B2, “Compositions and methods for activating NRF2-dependent gene expression” (The University of Chicago, priority 2018, dated 2024)

Key:
[1] = system: NRF2 target genes NQO1 and HMOX1; assay: Quantitative RT-PCR of NRF2 target genes in IMR32 cells; assay type: cell-based; details: MGx 1 mM
Procedure: FIG. 2A-F. Methylglyoxal modifies KEAP1 to form a covalent, high molecular weight dimer and activate NRF2 signaling. (a) Time-course, anti-FLAG Western blot analysis of whole cell lysates from HEK293T cells expressing FLAG-KEAP1 treated with DMSO or CBR-470-1. (b) Western blot monitoring of FLAG-KEAP1 migration in HEK293 T lysates after incubation with central glycolytic metabolites in vitro (1 and 5 mM, left and right for each metabolite). (c) FLAG-KEAP1 (red) and β-actin (green) from HEK293T cells treated with MGx (5 mM) for 8 hr. (d) Relative NQO1 and HMOX1 mRNA levels in IMR32 cells treated with MGx (1 mM) or water control (n=3). (e) LC-MS/MS quantitation of cellular MGx levels in IMR32 cells treated with CBR-470-1 relative to DMSO (n=4). (f) ARE-LUC reporter activity in HEK293T cells with transient shRNA knockdown of GLO1 (n=8). Univariate two-sided t-test (d, f); data are mean±SEM of biologically independent samples.
Quantitative RT-PCR. Cells were collected by trypsinization and subsequent centrifugation at 500 g. […] Quantitative RT-PCR reactions were measured on a Viia 7 Real-Time PCR system (Thermo) using a Clontech SYBR green-based master mix. Reactions were normalized to TUBG1 levels for each biological replicate and relative transcript abundance calculated using the comparative Ct method.

[2] = system: HCT116; assay: Viability of HCT116 with genetic manipulation of GLO1 and PGK1; assay type: cell-based
[3] = target: T1, PGK1 (Homo sapiens, UniProt P00558); assay: Recombinant PGK1 assay (GAPDH/PGK1 coupled assay, NADH absorbance); assay type: biochemical; details: absorbance 340 nm
T1 sequence (P00558 1-417): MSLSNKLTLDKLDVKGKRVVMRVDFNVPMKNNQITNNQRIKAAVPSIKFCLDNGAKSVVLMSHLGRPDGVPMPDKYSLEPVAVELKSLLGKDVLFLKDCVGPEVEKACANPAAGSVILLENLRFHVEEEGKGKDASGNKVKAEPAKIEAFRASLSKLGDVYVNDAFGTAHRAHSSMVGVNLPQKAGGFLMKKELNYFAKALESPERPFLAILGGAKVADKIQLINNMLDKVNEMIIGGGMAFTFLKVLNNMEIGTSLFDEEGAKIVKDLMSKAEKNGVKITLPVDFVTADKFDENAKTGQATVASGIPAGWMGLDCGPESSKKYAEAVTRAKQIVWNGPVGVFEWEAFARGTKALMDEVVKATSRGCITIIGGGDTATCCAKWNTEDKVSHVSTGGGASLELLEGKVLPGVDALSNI
From the text: FIG. 6A-D. CBR-470-1 inhibits PGK1 in vitro and in situ. (a) Schematic of the GAPDH/PGK1 coupled assay. Pre-equilibration of the GAPDH reaction (top left) results in an NAD^+/NADH equilibrium, which upon addition of PGK1 and ADP pulls the reaction to the right producing more NADH. Monitoring NADH absorbance after addition of PGK1 (bottom right) can be used to monitor PGK1 activity in the forward direction (right). […] (c, d) Relative level of central metabolites in IMR32 cells treated with viral knockdown of PGK1 for 72 hours (c) (n=4) and with CBR-470-1 relative DMSO alone for the indicative times (d) (n=3). Each metabolite is normalized to the control condition at each time point. Data shown represent mean±SEM of biologically independent samples.
Recombinant PGK1 assay. PGK1 enzymatic activity in the forward direction was measured with a coupled enzymatic assay^34. Three PGK1 conditions were prepared by dissolving recombinant PGK1 in potassium phosphate buffer (10 mM KH2PO4, 10 mM MgSO4, pH 7.0), and transferring the aliquots of PGK1 solution to the microtubes being treated with same amount of DMSO and indicated concentrations of CBR-470-1. Final concentration of PGK1 is 20 ng/mL and DMSO is 1% for each sample. […] The change in absorbance at 340 nm at room temperature was measured every 20 seconds for 45 minutes, by Tecan Infinite M200 plate reader. […]

Structure (SMILES): CC(=O)C=O [MGx, methylglyoxal, reference compound]
- expression of NRF2 target genes NQO1 and HMOX1 [1]: functionally activated expression of the downstream NRF2 target genes NQO1 and HMOX1

Structure (SMILES): CC(C)CN[C@H]1CS(=O)(=O)C[C@@H]1S(=O)(=O)c1ccc(Cl)cc1 [CBR-470-1]
- viability sensitivity of PGK1 knockdown cells ([2]; HCT116, PGK1 knockdown): more sensitive to CBR-470-1 metabolic inhibition
- viability sensitivity of cells acclimated to low GLO1 levels ([2]; HCT116, low GLO1): resistance to CBR-470-1 metabolic inhibition
- PGK1-dependent activity and accumulation of NADH [3]: significantly inhibits PGK1-dependent activity and accumulation of NADH
